Data taken from patent US20220281848A1, “PYRAZOLE-SUBSTITUTED PYRROLIDINONES AS HERBICIDES” (FMC Corporation, priority 2019, published 2022).

Test system: plants
Experiment: Test D pre-emergence, other plants of Tables D1 and D3
Assay type: in vivo
Settings: 20 DAA; for damage to plant (100=total damage to plant; 0=no damage to plant), BIDPI / damage to plant (100=total damage to plant; 0=no damage to plant), BRAPL / damage to plant (100=total damage to plant; 0=no damage to plant), CYPES / damage to plant (100=total damage to plant; 0=no damage to plant), EPHHL / damage to plant (100=total damage to plant; 0=no damage to plant), GLXMA / damage to plant (100=total damage to plant; 0=no damage to plant), IPOHE / damage to plant (100=total damage to plant; 0=no damage to plant), SORVU: preemergent; for CHEAL damage rating / GALAP damage rating / KCHSC damage rating / LOLPE damage rating / POAAN damage rating / STEME damage rating / VERPE damage rating: pre-emergence, 100=total damage, 0=no damage
Summary of the method: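 Seeds treated with herbicide safener; sown in soil; glasshouse, 16 h light, 65% humidity. Sprayed day 1 (pre) or ~day 12 (post). Spray in 0.2% v/v adjuvant. Scored 0–100 damage: 20 DAA pre, 15 d post.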

Question: Which “damage to plant (100=total damage to plant; 0=no damage to plant), BIDPI” value (rate 15) does the source give for CN1CC(c2cnn(C)c2C(F)(F)F)C(C(=O)Nc2cccc(F)c2F)C1=O (racemic) [Compound 25] here?
Answer: Its value is 0.

Question: What about the “damage to plant (100=total damage to plant; 0=no damage to plant), BIDPI” value (rate 30) of the same molecule?
Answer: The value was 0.

Question: What about the “damage to plant (100=total damage to plant; 0=no damage to plant), BIDPI” value (rate 60) of the same molecule?
Answer: The value was 0.

Question: And the “damage to plant (100=total damage to plant; 0=no damage to plant), BIDPI” value (rate 130)?
Answer: The value was 0.

Question: What about the “damage to plant (100=total damage to plant; 0=no damage to plant), BIDPI” value (rate 250) of the same molecule?
Answer: Its value is 0.

Question: What about the “damage to plant (100=total damage to plant; 0=no damage to plant), BIDPI” value (rate 500) of the same molecule?
Answer: Its value is 0.

Question: What about the “damage to plant (100=total damage to plant; 0=no damage to plant), BRAPL” value (rate 15) of the same molecule?
Answer: Its value is 0.

Question: What about the “damage to plant (100=total damage to plant; 0=no damage to plant), BRAPL” value (rate 30) of the same molecule?
Answer: The value was 0.

Question: And the “damage to plant (100=total damage to plant; 0=no damage to plant), BRAPL” value (rate 60)?
Answer: Its value is 30.

Question: And the “damage to plant (100=total damage to plant; 0=no damage to plant), BRAPL” value (rate 130)?
Answer: Its value is 80.

Question: And the “damage to plant (100=total damage to plant; 0=no damage to plant), BRAPL” value (rate 250)?
Answer: The value was 90.

Question: What about the “damage to plant (100=total damage to plant; 0=no damage to plant), BRAPL” value (rate 500) of the same molecule?
Answer: Its value is 90.

Question: And the CHEAL damage rating (Rates 15)?
Answer: The CHEAL damage rating was 0.

Question: What about the CHEAL damage rating (Rates 30) of the same molecule?
Answer: The CHEAL damage rating was 0.

Question: What about the CHEAL damage rating (Rates 60) of the same molecule?
Answer: The CHEAL damage rating was 0.

Question: What about the CHEAL damage rating (Rates 130) of the same molecule?
Answer: Its CHEAL damage rating is 0.

Question: What about the CHEAL damage rating (Rates 250) of the same molecule?
Answer: The CHEAL damage rating was 20.

Question: What about the CHEAL damage rating (Rates 500) of the same molecule?
Answer: The CHEAL damage rating was 50.

Question: What about the “damage to plant (100=total damage to plant; 0=no damage to plant), CYPES” value (rate 15) of the same molecule?
Answer: The value was 0.

Question: And the “damage to plant (100=total damage to plant; 0=no damage to plant), CYPES” value (rate 30)?
Answer: Its value is 0.

Question: What about the “damage to plant (100=total damage to plant; 0=no damage to plant), CYPES” value (rate 60) of the same molecule?
Answer: Its value is 0.

Question: What about the “damage to plant (100=total damage to plant; 0=no damage to plant), CYPES” value (rate 130) of the same molecule?
Answer: The value was 0.

Question: And the “damage to plant (100=total damage to plant; 0=no damage to plant), CYPES” value (rate 250)?
Answer: The value was 0.

Question: What about the “damage to plant (100=total damage to plant; 0=no damage to plant), CYPES” value (rate 500) of the same molecule?
Answer: The value was 0.

Question: And the “damage to plant (100=total damage to plant; 0=no damage to plant), EPHHL” value (rate 15)?
Answer: Its value is 0.

Question: And the “damage to plant (100=total damage to plant; 0=no damage to plant), EPHHL” value (rate 30)?
Answer: The value was 0.

Question: And the “damage to plant (100=total damage to plant; 0=no damage to plant), EPHHL” value (rate 60)?
Answer: The value was 0.

Question: What about the “damage to plant (100=total damage to plant; 0=no damage to plant), EPHHL” value (rate 130) of the same molecule?
Answer: The value was 0.

Question: What about the “damage to plant (100=total damage to plant; 0=no damage to plant), EPHHL” value (rate 250) of the same molecule?
Answer: The value was 0.

Question: And the “damage to plant (100=total damage to plant; 0=no damage to plant), EPHHL” value (rate 500)?
Answer: The value was 0.

Question: What about the GALAP damage rating (Rates 15) of the same molecule?
Answer: Its GALAP damage rating is 0.

Question: And the GALAP damage rating (Rates 30)?
Answer: Its GALAP damage rating is 0.

Question: And the GALAP damage rating (Rates 60)?
Answer: The GALAP damage rating was 0.

Question: And the GALAP damage rating (Rates 130)?
Answer: The GALAP damage rating was 0.

Question: What about the GALAP damage rating (Rates 250) of the same molecule?
Answer: The GALAP damage rating was 0.

Question: What about the GALAP damage rating (Rates 500) of the same molecule?
Answer: Its GALAP damage rating is 0.

Question: And the “damage to plant (100=total damage to plant; 0=no damage to plant), GLXMA” value (rate 15)?
Answer: Its value is 0.

Question: And the “damage to plant (100=total damage to plant; 0=no damage to plant), GLXMA” value (rate 30)?
Answer: Its value is 0.

Question: What about the “damage to plant (100=total damage to plant; 0=no damage to plant), GLXMA” value (rate 60) of the same molecule?
Answer: Its value is 0.

Question: And the “damage to plant (100=total damage to plant; 0=no damage to plant), GLXMA” value (rate 130)?
Answer: The value was 0.

Question: What about the “damage to plant (100=total damage to plant; 0=no damage to plant), GLXMA” value (rate 250) of the same molecule?
Answer: The value was 0.

Question: And the “damage to plant (100=total damage to plant; 0=no damage to plant), GLXMA” value (rate 500)?
Answer: Its value is 0.

Question: What about the “damage to plant (100=total damage to plant; 0=no damage to plant), IPOHE” value (rate 15) of the same molecule?
Answer: Its value is 0.

Question: What about the “damage to plant (100=total damage to plant; 0=no damage to plant), IPOHE” value (rate 30) of the same molecule?
Answer: The value was 0.

Question: And the “damage to plant (100=total damage to plant; 0=no damage to plant), IPOHE” value (rate 60)?
Answer: Its value is 0.

Question: And the “damage to plant (100=total damage to plant; 0=no damage to plant), IPOHE” value (rate 130)?
Answer: Its value is 0.

Question: And the “damage to plant (100=total damage to plant; 0=no damage to plant), IPOHE” value (rate 250)?
Answer: The value was 0.

Question: What about the “damage to plant (100=total damage to plant; 0=no damage to plant), IPOHE” value (rate 500) of the same molecule?
Answer: Its value is 0.

Question: And the KCHSC damage rating (Rates 15)?
Answer: The KCHSC damage rating was 0.

Question: What about the KCHSC damage rating (Rates 30) of the same molecule?
Answer: Its KCHSC damage rating is 0.

Question: And the KCHSC damage rating (Rates 60)?
Answer: The KCHSC damage rating was 0.

Question: What about the KCHSC damage rating (Rates 130) of the same molecule?
Answer: The KCHSC damage rating was 0.

Question: What about the KCHSC damage rating (Rates 250) of the same molecule?
Answer: Its KCHSC damage rating is 0.

Question: And the KCHSC damage rating (Rates 500)?
Answer: The KCHSC damage rating was 0.

Question: What about the LOLPE damage rating (Rates 15) of the same molecule?
Answer: The LOLPE damage rating was 0.

Question: What about the LOLPE damage rating (Rates 30) of the same molecule?
Answer: The LOLPE damage rating was 0.

Question: And the LOLPE damage rating (Rates 60)?
Answer: The LOLPE damage rating was 0.

Question: What about the LOLPE damage rating (Rates 130) of the same molecule?
Answer: Its LOLPE damage rating is 0.

Question: What about the LOLPE damage rating (Rates 250) of the same molecule?
Answer: Its LOLPE damage rating is 0.

Question: And the LOLPE damage rating (Rates 500)?
Answer: Its LOLPE damage rating is 0.

Question: What about the POAAN damage rating (Rates 15) of the same molecule?
Answer: Its POAAN damage rating is 0.

Question: And the POAAN damage rating (Rates 30)?
Answer: The POAAN damage rating was 0.

Question: What about the POAAN damage rating (Rates 60) of the same molecule?
Answer: The POAAN damage rating was 0.

Question: And the POAAN damage rating (Rates 130)?
Answer: Its POAAN damage rating is 0.

Question: What about the POAAN damage rating (Rates 250) of the same molecule?
Answer: The POAAN damage rating was 0.

Question: What about the POAAN damage rating (Rates 500) of the same molecule?
Answer: The POAAN damage rating was 0.

Question: And the “damage to plant (100=total damage to plant; 0=no damage to plant), SORVU” value (rate 15)?
Answer: The value was 0.

Question: What about the “damage to plant (100=total damage to plant; 0=no damage to plant), SORVU” value (rate 30) of the same molecule?
Answer: The value was 0.

Question: And the “damage to plant (100=total damage to plant; 0=no damage to plant), SORVU” value (rate 60)?
Answer: Its value is 0.

Question: And the “damage to plant (100=total damage to plant; 0=no damage to plant), SORVU” value (rate 130)?
Answer: The value was 0.

Question: And the “damage to plant (100=total damage to plant; 0=no damage to plant), SORVU” value (rate 250)?
Answer: Its value is 0.

Question: What about the “damage to plant (100=total damage to plant; 0=no damage to plant), SORVU” value (rate 500) of the same molecule?
Answer: The value was 0.

Question: What about the STEME damage rating (Rates 15) of the same molecule?
Answer: Its STEME damage rating is 0.

Question: What about the STEME damage rating (Rates 30) of the same molecule?
Answer: The STEME damage rating was 0.

Question: And the STEME damage rating (Rates 60)?
Answer: The STEME damage rating was 0.

Question: And the STEME damage rating (Rates 130)?
Answer: Its STEME damage rating is 0.

Question: And the STEME damage rating (Rates 250)?
Answer: The STEME damage rating was 0.

Question: What about the STEME damage rating (Rates 500) of the same molecule?
Answer: Its STEME damage rating is 50.

Question: And the VERPE damage rating (Rates 15)?
Answer: Its VERPE damage rating is 0.

Question: And the VERPE damage rating (Rates 30)?
Answer: The VERPE damage rating was 0.

Question: And the VERPE damage rating (Rates 60)?
Answer: The VERPE damage rating was 0.

Question: And the VERPE damage rating (Rates 130)?
Answer: The VERPE damage rating was 0.

Question: What about the VERPE damage rating (Rates 250) of the same molecule?
Answer: The VERPE damage rating was 0.

Question: And the VERPE damage rating (Rates 500)?
Answer: The VERPE damage rating was 10.
